We go through three substances from patent publication US10814013B2, “Efficient synthesis of chelators for nuclear imaging and radiotherapy: compositions and applications” (The Board of Regents of the University of Texas System, priority 2006, dated 2020).

A short description of data set [1]: In vitro stability of EC-G dissolved in water. The format is physicochemical. The method, then: (§1) To further validate EC-G biological activity, in vitro cell culture assays were performed. Briefly, the cellular uptake was determined in tumor cells (50,000 cells/well) incubated with ^99mTc-EC-G (2 μCi/well) at various time intervals. […] There was a 10-15% decrease in cellular uptake using ^99mTc-EC-G after 2-4 weeks. The useful life of EC-G in water appears to be 17.26 days.

Data set [2] is described as follows: In vivo imaging studies of EC-G. To be noted: comparison of aqueous and organic synthesized EC-G.
The next data set relates to tumor cells. Kind of data set: Cellular uptake of ^99mTc-EC-G in tumor cells. It is filed as cell-based. The method, then: as §1
The next data set deals with human lymphoma cells. The data set can be described thus: [^3H]Thymidine incorporation assay using Re-EC-G and a lymphoma cell line. Conditions: in vitro cell culture, dose response curve (FIG. 3). It is filed as cell-based. (Incorporation of labelled thymidine or its analogues reports DNA synthesis.)
The test system of the next data set is New Zealand white rabbit. The data set can be described thus: PET imaging in a New Zealand white rabbit. It is filed as in vivo. Conditions: PET coronal images 45 minutes after injection of 0.66 mCi. The method, then:
The numbers are heart/upper mediastinum (H/UM) count density (count/pixel) ratios at 15-45 minutes. […] A rabbit was administered ^68Ga-EC-trimethyl lysine (EC-TML). PET coronal images were acquired at 45 minutes after injection of 0.66 mCi of ^68Ga-EC-TML (dorsal to ventral order).

Regarding “N,N′-ethylenedicysteine-glucosamine [EC-G]”, the “useful life of EC-G in water” value in data set [1] is reported as 17.26 days. For the same substance, the “in vivo imaging, EC-G from aqueous versus organic synthesis” value in data set [2] is recorded as “no marked difference”. In addition, the “in vitro uptake, aqueous versus organic synthesized EC-G” value with tumor cells (comparison of aqueous and organic synthesized EC-G) was “no marked difference”. Besides, in the data set with tumor cells (tumor cells 50,000 cells/well, ^99mTc-EC-G 2 μCi/well, various time intervals (FIG. 4)), the “cellular uptake, raw (unpurified) EC-G versus prep-HPLC purified EC-G” value is listed as “no marked difference”.
“rhenium-ethylenedicysteine-glucosamine [Re-EC-G]”: in the data set with human lymphoma cells, the “activity against human lymphoma cells” value is given as “effective”.
In the case of “^68Ga-EC-trimethyl lysine [^68Ga-EC-TML]”, the “uptake in the heart” value in the data set with New Zealand white rabbit was “High uptake”.
